Measured values: publication PMC4718940, “Preclinical studies of 5-fluoro-2′-deoxycytidine and tetrahydrouridine in pediatric brain tumors” (Journal of Neuro-Oncology, 2015)
Where two headings read alike, the source gives them in different places.

Legend:
Type in all cases: cell-based
mouse EP neurospheres = assay: 72 h dose response, CellTiter-Glo, mouse EP neurospheres; settings: 72 hr treatment, 384-well; for EC50: read-out: EP EC50
Procedure: (§1) In the Discovery Phase, the initial studies included the screen of a library of 9 compounds against epigenetic regulators at a single concentration and a dose-response on G3 MB, EP, and CPC tumor cells, as well as HEPG2 and BJ (Fig. 1). The library and dose response studies are described in the Supplementary Material.
(§2) Briefly, cells (see Supplementary Table S2 for cell identity) were plated in 384-well plates (Corning) in 30 µL of supplemented neurobasal medium by using an automated plate filler (Wellmate, Matrix). After 24 hr, 28 nL of compound was transferred via pin tool, resulting in a final drug concentration of approximately 4 nM to 10 µM. After 72 hr of treatment, CellTiter-Glo reagent (Promega) was added, and the luminescence signal was measured using an automated Envision plate reader (Perkin-Elmer). Luminescence data were normalized by log10-transformation prior to calculating the percentage of inhibition using the following equation: 100 × (negative control mean − compound value)/(negative control mean − positive control mean). Our negative control represents cells treated with 0.1% DMSO with 0% inhibition. Cells treated with 35 µM cycloheximide (G3 MB tumor spheres) or 10 µM panobinostat (EP and CPC cells) were used as positive controls with 100% inhibition. The response of cells to the compounds were normalized to that of the positive controls present in each plate screened, shown in the Y axis of the dose-response curve. […] Unless otherwise reported, the y-axis for each dose response curve in the figures was independently normalized to the range from 0 to 1 and therefore reported as ‘relative growth inhibition’. High through put assay data were analyzed by using our in-house Robust Interpretation of Screening Experiments (RISE) application that was written in Pipeline Pilot (Accelrys, v. 8.5) and R (R Development Core Team).

[1] = test system: Mouse G3 MB Myc1 neurospheres; assay: 72 h dose response, CellTiter-Glo, mouse G3 MB neurospheres; settings: 72 hr treatment, 384-well; for EC50: read-out: G3-MB EC50
Procedure: as §1, §2

[2] = test system: mouse CPC neurospheres (CPC300); assay: 72 h dose response, CellTiter-Glo, mouse CPC neurospheres; settings: 72 hr treatment, 384-well; for EC50: read-out: CPC300 EC50
Procedure: as §1, §2

Row | Structure (SMILES) | EC50 (mouse EP neurospheres; Mus musculus) [nM] | EC50 ([2]; Mus musculus) [nM] | G3-MB EC50 [1] | EC50 (mouse EP neurospheres) [nM] | EC50 [1] [nM] | EC50 [2] [nM] | also measured
1 | Nc1nccc2c1ncn2C1C=C(CO)C(O)C1O (stereo not shown) [3-Deazaneplanocin A] | 110 | 310 |  |  |  |  | EC50 ([1]; Mus musculus): 360 nM
2 | Nc1ncn([C@@H]2O[C@H](CO)[C@@H](O)[C@H]2O)c(=O)n1 [5-Azacytidine] | 5300 | 1080 | Inactive |  |  |  | 
3 | Nc1ncn([C@H]2C[C@H](O)[C@@H](CO)O2)c(=O)n1 [Decitabine] | 500 | 6700 |  |  |  |  | EC50 ([1]; Mus musculus): 960 nM
4 | CCNC(=O)C[C@@H]1N=C(c2ccc(Cl)cc2)c2cc(OC)ccc2-n2c(C)nnc21 [I-BET] |  |  |  | 4100 | 900 | > 5500 | 
5 | Cc1sc2c(c1C)C(c1ccc(Cl)cc1)=N[C@@H](CC(=O)OC(C)(C)C)c1nnc(C)n1-2 [JQ1] |  |  |  | 1700 | 700 | > 5600 | 
6 | O=C(CCCCCCC(=O)Nc1ccccc1)NO [SAHA (Vorinostat), Vorinostat] |  |  | Inactive |  |  |  | 
7 | CC(/C=C/C(=O)NO)=C\[C@@H](C)C(=O)c1ccc(N(C)C)cc1 [Trichostatin A] |  |  |  | 400 | 100 | 2100 | 
8 | O=c1ncccn1[C@@H]1O[C@H](CO)[C@@H](O)[C@H]1O [Zebularin, Zebularine] |  |  | Inactive |  |  |  | EP EC50 (mouse EP neurospheres): Inactive; CPC300 EC50 [2]: Inactive
